Reference: patent US6548042B2, “Bis-phosphonate compounds” (priority 2000, dated 2003)

Assay: Pharmacokinetics in mice by scintigraphy (gamma camera)
Type: in vivo, balb/c mice
Protocol: Pharmacokinetics in mice. Two animals weighing 20 g and 28 g were anaesthetized and given 250 μl single bolus tail vein injections containing 12 MBq of 46a. The animals were placed under a gamma camera and 2 min frames were collected for the following 2 h. The presented data refers to the animal weighing 20 g.
A gamma camera (ADAC, USA) equipped with a 6 mm pinhole collimator was used. Dynamic data were acquired using a 128×128 matrix size, the field of view was zoomed to the middle 25×25 cm of the camera, and 2 min frames were collected for 2 hours.
The progression from intravenous injection of the hydroxybisphosphonate 46a in mice (balb/c, 20 g) was monitored by means of scintigraphy for 2 h. Images were obtained and dynamic curves for the radioactivity detected in the kidneys and bladder were derived by interactively drawing regions around structures of interest (FIG. 9). […] This is due to the increased sensitivity in the middle of the image, where the accumulation occurs in the kidneys and bladder.

O=P(O)(O)C(O)(Cc1cccc([131I])c1)P(=O)(O)O [46a, 1-hydroxy(m-[^131I and ^125I]-iodophenyl)-ethylidene-1,1-bisphosphonic acid]
Injected activity accumulated in the bladder (after 2 hours, mouse 20 g, 12 MBq i.v.): 27% | Peak uptake in the kidneys (left and right) (at 45 min postinjection): 7.5 % of the injected dose | Biological half-life in the kidneys (from the peak at 45 min): 50 min | Estimated excretion of the injected dose (mouse, in vivo): 35% | Estimated retention of the injected dose (mouse, in vivo): 65% | Time of peak uptake in the kidneys (postinjection): 45 min
